We go through 14 compounds from PubChem BioAssay (NCI).

Several values for one entry are separate records, joined by “and”; a condition that tells them apart may be missing. Identical values can stand only once.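 48-hour exposure; five concentrations; linearly interpolated endpoints. TGI denotes the concentration required for complete inhibition of growth.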

Some test systems named below: T-47D breast; SF-539 CNS; NCI-H522 lung; CAKI-1 renal; RXF 393 renal; BT-549 breast; HT29 colon; TK-10 renal; CCRF-CEM leukemia; UACC-257 melanoma.
Holding throughout (test): DTP human tumour cell line panel, 48 h

One may read the TGI as the concentration giving total growth inhibition. Take `Cc1nc2ccccc2n1CCc1nc2ccccc2s1`: the TGI with T-47D breast, in the test on SF-539 CNS, with NCI-H522 lung, in the test on CAKI-1 renal, in the test with RXF 393 renal and with BT-549 breast was above 100 µM each time. For the same compound, the TGI with HT29 colon, in the test on TK-10 renal, in the test with CCRF-CEM leukemia and in the test on UACC-257 melanoma was above 100 µM in each case.
Take `CC(Nc1cc(Cl)cc(Cl)c1)c1ccncc1` (stereo not given): the TGI in the test on T-47D breast is above 100 µM; with SF-539 CNS, 40.8 µM; in the test on NCI-H522 lung, 32.6 µM; in the test on CAKI-1 renal it was 52.4 µM; in the test on RXF 393 renal, 71.3 µM; with BT-549 breast it was 52.7 µM. Also, the TGI in the test with HT29 colon is 88.8 µM; in the test on TK-10 renal, above 100 µM; in the test on CCRF-CEM leukemia, 58 µM; with UACC-257 melanoma it was 58.6 µM.
With `COc1ccc(N=C/C=C/Nc2ccc(OC)cc2)cc1`, the TGI in the test with T-47D breast was 35.3 µM; with SF-539 CNS, 24.1 µM; in the test with NCI-H522 lung, 23.7 µM; in the test on CAKI-1 renal, 12.5 µM; with RXF 393 renal, 18.5 µM; in the test with BT-549 breast it was 9.34 µM. The TGI is 8.31 µM in the test with HT29 colon, 27.4 µM with TK-10 renal, above 37.2 µM in the test with CCRF-CEM leukemia and 18.7 µM with UACC-257 melanoma.
For `CCCCCC(C)C[C@H]1CO[C@H](c2ccc[nH]2)N[C@H]1C(=O)OC` (stereo not given in full), the TGI in the test with T-47D breast, with SF-539 CNS, in the test with NCI-H522 lung, in the test with CAKI-1 renal, in the test with RXF 393 renal and in the test with BT-549 breast was above 100 µM throughout. Besides, the TGI in the test on HT29 colon, with TK-10 renal, in the test on CCRF-CEM leukemia and with UACC-257 melanoma was above 100 µM in each case.
With `CO[P@]1(=O)O[C@@H](c2ccccc2)[C@H](O)[C@]1(O)c1ccccc1`, the TGI in the test with T-47D breast, with SF-539 CNS, with NCI-H522 lung, with CAKI-1 renal, in the test with RXF 393 renal and in the test with BT-549 breast was above 100 µM throughout. The TGI in the test with HT29 colon, in the test on TK-10 renal, in the test on CCRF-CEM leukemia and in the test on UACC-257 melanoma was above 100 µM each time.
Turning to `COc1ccc(CNc2nc3ccccc3nc2-c2cccs2)cc1`, the TGI in the test on T-47D breast is above 100 µM; in the test with SF-539 CNS, above 100 µM; in the test on NCI-H522 lung, above 100 µM; in the test on CAKI-1 renal it was 46.3 µM; in the test on RXF 393 renal, above 100 µM; in the test on BT-549 breast, 95.4 µM. In addition, the TGI in the test with HT29 colon, in the test on TK-10 renal, in the test with CCRF-CEM leukemia and in the test on UACC-257 melanoma was above 100 µM throughout.
Take `NNC(=O)c1ccccc1NC(=O)/C(=C/c1ccccc1)NC(=O)c1ccccc1`: the TGI with T-47D breast, in the test with SF-539 CNS, in the test on NCI-H522 lung, with CAKI-1 renal, with RXF 393 renal and with BT-549 breast was above 100 µM in each case. Also, the TGI with HT29 colon, in the test with TK-10 renal, with CCRF-CEM leukemia and in the test with UACC-257 melanoma was above 100 µM each time.
As for `Cc1c2cc[n+](C)cc2c(C)c2c1[nH]c1ccccc12`, the TGI in the test on T-47D breast is 0.832 µM; with SF-539 CNS, 2.85 µM and 2.93 µM; in the test with NCI-H522 lung it was 3.6 µM and 3.45 µM; in the test with CAKI-1 renal it was 58.8 µM and 27.7 µM; in the test with RXF 393 renal, 62 µM and 36.7 µM; with BT-549 breast, 8.07 µM. In addition, the TGI in the test on HT29 colon is 62.7 µM and 71.6 µM; in the test with TK-10 renal, above 100 µM; with CCRF-CEM leukemia, 41.9 µM and 35.3 µM; in the test with UACC-257 melanoma, 37.5 µM and 43.2 µM.
Turning to `C/C(=N/O)c1cccc(Nc2nc3ccccc3c3[nH]c4ccccc4c23)c1`, the TGI came out at 3.82 µM with T-47D breast; 23.9 µM with SF-539 CNS; 4.4 µM with NCI-H522 lung; 6.89 µM in the test with CAKI-1 renal; 4.59 µM in the test with RXF 393 renal; 34.7 µM with BT-549 breast. Also, the TGI was 6.51 µM in the test on HT29 colon, 15.6 µM in the test with TK-10 renal, above 100 µM in the test with CCRF-CEM leukemia and 17.6 µM with UACC-257 melanoma.
On to `c1ccc(N=NNNc2ccc(-c3nc4ccccc4[nH]3)cc2)cc1`, for which the TGI in the test with T-47D breast was 39.1 µM; in the test with SF-539 CNS it was above 100 µM; with NCI-H522 lung it was above 100 µM; in the test on CAKI-1 renal, above 100 µM; in the test on RXF 393 renal it was 55.8 µM; with BT-549 breast, 76.8 µM. Moreover, the TGI in the test on HT29 colon was 94.7 µM; in the test on TK-10 renal, above 100 µM; with CCRF-CEM leukemia it was 56.1 µM; with UACC-257 melanoma, above 100 µM.
For the compound `COc1nc2c(c(=O)n1C)N[C@@H]1[C@@H](O)[C@H](O)CO[C@@H]1N2`, the TGI in the test on T-47D breast, in the test with SF-539 CNS, with NCI-H522 lung, in the test on CAKI-1 renal, in the test on RXF 393 renal and with BT-549 breast was above 100 µM in each case. Also, the TGI in the test on HT29 colon, in the test on TK-10 renal, in the test with CCRF-CEM leukemia and with UACC-257 melanoma was above 100 µM throughout.
With `CCN(CC)CCNc1ccc(N=Nc2ccc(S(N)(=O)=O)cc2)c2ccccc12`, the TGI in the test with T-47D breast was determined as 8.27 µM; in the test on SF-539 CNS it was 12.8 µM; in the test with NCI-H522 lung, 32 µM; in the test on CAKI-1 renal it was 31.2 µM; in the test on RXF 393 renal, 12.7 µM; in the test on BT-549 breast it was 34 µM. Besides, the TGI amounted to 34.9 µM with HT29 colon, 40.3 µM with TK-10 renal, 38.3 µM in the test with CCRF-CEM leukemia and 31.4 µM in the test with UACC-257 melanoma.
Take `COc1cccc(C2c3cc4c(cc3OC(N3CCOCC3)C2C)OCO4)c1O` (stereo not given): the TGI in the test with T-47D breast came out at 36.4 µM; in the test on SF-539 CNS, 9.66 µM; in the test on NCI-H522 lung, 8.39 µM; in the test on CAKI-1 renal, 18.6 µM; in the test on RXF 393 renal, 9.43 µM; in the test with BT-549 breast, 76.1 µM. In addition, the TGI with HT29 colon is 28.8 µM; with TK-10 renal, 83.6 µM; in the test on CCRF-CEM leukemia it was 35.3 µM; in the test with UACC-257 melanoma, above 83.3 µM.
`CC1(C)C2CCC1C(=O)C(C=O)C2` (stereo not given): the concentration for total growth inhibition (TGI) with T-47D breast, with SF-539 CNS, with NCI-H522 lung, in the test with CAKI-1 renal, in the test on RXF 393 renal and in the test on BT-549 breast was above 100 µM throughout. Moreover, the TGI in the test on HT29 colon, in the test with TK-10 renal, in the test with CCRF-CEM leukemia and in the test on UACC-257 melanoma was above 100 µM in each case.
